From patent US5137907A, “1-(3-(4-(3,5-difluorophenoxy) phenoxy) propyl) - pyrazole, and its production and use” (Sumitomo Chemical Company, Limited, priority 1988, dated 1992)
Read-outs that look alike come from different tables or passages of the source.

Assays:
[1] = test system: housefly (Musca domestica); assay: Inhibition test on housefly larvae reared in artificial culture until pupation, pupae examined (Test Example 2); assay type: in vivo
Description: Powdered animal feed (2 g) was thoroughly mixed with bran (14 g). An emulsifiable concentrate prepared according to Formulation Example 1 was diluted with water to a designed concentration, and the dilution was added to the above mixture. The resultant mixture was stirred well to make an artificial culture. Thirty larvae of housefly (Musca domestica) were reared therein until their pupation. The obtained pupae were placed into a plastic cup, and the concentration for 50% inhibition was examined in the same manner as in Test Example 1.

[2] = test system: common mosquito (Culex pipiens pallens); assay: Inhibition of emergence of last instar larvae of common mosquito (Test Example 1); assay type: in vivo
Description: An emulsifiable concentrate prepared according to Formulation Example 1 was diluted with water to make a designed concentration. The dilution (0.7 ml) was added to 100 ml of distilled water. Last instar larvae of common mosquito (Culex pipiens pallens) were released therein and reared for 7 days until their emergence, and the concentration for 50% inhibition (IC50) was examined.

[3] = thirty larvae reared in artificial culture (powdered animal feed 2 g, bran 14 g, diluted emulsifiable concentrate) until pupation, pupae placed into plastic cup
[4] = last instar larvae, 0.7 ml dilution of emulsifiable concentrate added to 100 ml distilled water, reared for 7 days until emergence

Row | Structure (SMILES) | concentration for 50% inhibition (IC50) [1, 3] [ppm] | concentration for 50% inhibition (IC50) [2, 4] [ppm] | further results
1 | Clc1cccc(Oc2ccc(OCCn3cccn3)cc2)c1 [(E)] | 1.0 |  | 
2 | Clc1cc(Cl)cc(Oc2ccc(OCCCn3cccn3)cc2)c1 [(G)] | 1.8 |  | 
3 | Fc1cc(F)cc(Oc2ccc(OCCCn3cccn3)cc2)c1 [Pyrazole compound (I), 1-{3-[4-(3,5-difluorophenoxy)phenoxy]propyl}pyrazole] | 0.14 | 0.000009 | 
4 | Cn1nccc1COc1ccc(Oc2ccccc2)cc1 [(C)] | > 3 |  | 
5 | c1ccc(Oc2ccc(OCCn3cccn3)cc2)cc1 [(D)] |  | 0.00023 | 
6 | c1ccc(Oc2ccc(OCCCn3cccn3)cc2)cc1 [(F)] |  | 0.0007 | 
7 | c1ccc(Oc2ccc(OCCCc3ccccn3)cc2)cc1 [(B)] | > 3 | 0.00013 | 
8 | COC(C)(C)CCCC(C)CC=CC(C)=CC(=O)OC(C)C (centres unmarked) [(A), methoprene] |  |  | concentration for 50% inhibition (IC50) ([2]; 168 h): 0.00018 ppm; concentration for 50% inhibition (IC50) [1]: 2.3 ppm
